In the supplement of paper PMC10307832 one finds relative viability data, which are given here for 8 cell lines.

Common to all, as to experiment: relative viability (nuclei count vs DMSO), 5 days (fraction); higher = more cells survive
Compound in one assay: CC1(C)CNc2cc(NC(=O)c3cccnc3NCc3ccncc3)ccc21 [Motesanib]
In a few lines: (§1)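 Viability here means nuclei in treated wells divided by nuclei in vehicle wells, reported as the median across plates. Only plates with control CV below 25% and at least one doubling passed. Lung cancer cell lines in 1536-well plates were exposed to five √10-spaced library-drug doses for 5 days and counted from 4× Hoechst images in MetaXpress.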

Compound in assay [1]: C[C@@]1(C(=O)Nc2ccc(F)nc2)CCCN1c1nc(Nc2cc(C3CC3)n[nH]2)c2cccn2n1
The gist of the method:
as §1

Compound in the assay “Motesanib + Alpelisib”: CC1(C)CNc2cc(NC(=O)c3cccnc3NCc3ccncc3)ccc21 [Motesanib] + Cc1nc(NC(=O)N2CCC[C@H]2C(N)=O)sc1-c1ccnc(C(C)(C)C(F)(F)F)c1 [Alpelisib] (partner 2 µM)
In a few lines:
(§2)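 Five library-drug doses in √10 steps were combined with a fixed anchor-drug dose, or a single drug was given alone, by pin tool to lung cancer cell lines in 1536-well plates the day after seeding. Nuclei were stained and counted after 5 days. Relative viability is the nuclei count in treated wells over that in vehicle wells, taken as the median of duplicate plates.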

Compound in assay [2]: C[C@@]1(C(=O)Nc2ccc(F)nc2)CCCN1c1nc(Nc2cc(C3CC3)n[nH]2)c2cccn2n1 + Nc1nc2[nH]cc(CCc3ccc(C(=O)N[C@@H](CCC(=O)O)C(=O)O)cc3)c2c(=O)[nH]1 [Pemetrexed] (partner 0.2 µM)
In a few lines: as §2

Turning to HCC-78, the relative viability in the assay with Motesanib (0.01 µM) worked out at 0.891; with Motesanib (0.03162 µM) it was 0.957; with Motesanib (0.1 µM) it was 0.957; in the assay with Motesanib (0.3162 µM), 0.92; with Motesanib (1 µM), 1.03; in assay [1] (0.04 µM), 0.968. The relative viability in assay [1] (0.1265 µM) was 0.686; in assay [1] (0.4 µM) it was 0.496; in assay [1] (1.265 µM), 0.44; with Motesanib + Alpelisib (first compound 0.01 µM) it was 0.337; with Motesanib + Alpelisib (first compound 0.03162 µM), 0.304; in the assay with Motesanib + Alpelisib (first compound 0.1 µM) it was 0.35. The relative viability was found to be 0.356 with Motesanib + Alpelisib (first compound 0.3162 µM); 0.333 in the assay with Motesanib + Alpelisib (first compound 1 µM); 0.898 in assay [2] (first compound 0.04 µM); 0.898 in assay [2] (first compound 0.1265 µM); 0.913 in assay [2] (first compound 0.4 µM); 0.922 in assay [2] (first compound 1.265 µM).
As for HCC-366, the relative viability amounted to 1.04 with Motesanib (0.01 µM); 1.01 in the assay with Motesanib (0.03162 µM); 0.991 with Motesanib (0.1 µM); 1.04 in the assay with Motesanib (0.3162 µM); 1.07 with Motesanib (1 µM); 1 in assay [1] (0.04 µM). For the same cell line, the relative viability in assay [1] (0.1265 µM) came to 0.98; in assay [1] (0.4 µM) it was 1.03; in assay [1] (1.265 µM), 0.753; with Motesanib + Alpelisib (first compound 0.01 µM) it was 0.445; with Motesanib + Alpelisib (first compound 0.03162 µM), 0.422; with Motesanib + Alpelisib (first compound 0.1 µM), 0.449. The relative viability in the assay with Motesanib + Alpelisib (first compound 0.3162 µM) is 0.424; with Motesanib + Alpelisib (first compound 1 µM), 0.321; in assay [2] (first compound 0.04 µM) it was 0.21; in assay [2] (first compound 0.1265 µM) it was 0.245; in assay [2] (first compound 0.4 µM), 0.212; in assay [2] (first compound 1.265 µM), 0.163.
For the cell line HCC-827, the relative viability with Motesanib (0.01 µM) is 1.09; with Motesanib (0.03162 µM) it was 1.08; with Motesanib (0.1 µM), 1.06; in the assay with Motesanib (0.3162 µM), 1.07; with Motesanib (1 µM) it was 1.09; in assay [1] (0.04 µM), 1.02. For the same cell line, the relative viability is 1.01 in assay [1] (0.1265 µM); 0.968 in assay [1] (0.4 µM); 1.07 in assay [1] (1.265 µM); 0.99 in the assay with Motesanib + Alpelisib (first compound 0.01 µM); 1.01 with Motesanib + Alpelisib (first compound 0.03162 µM); 1.03 with Motesanib + Alpelisib (first compound 0.1 µM). In addition, the relative viability is 1.03 with Motesanib + Alpelisib (first compound 0.3162 µM); 1.03 with Motesanib + Alpelisib (first compound 1 µM); 0.264 in assay [2] (first compound 0.04 µM); 0.284 in assay [2] (first compound 0.1265 µM); 0.244 in assay [2] (first compound 0.4 µM); 0.277 in assay [2] (first compound 1.265 µM).
HOP-62: the relative viability in the assay with Motesanib (0.01 µM) amounted to 1.06; with Motesanib (0.03162 µM) it was 1.04; with Motesanib (0.1 µM) it was 1.12; in the assay with Motesanib (0.3162 µM) it was 1.09; in the assay with Motesanib (1 µM), 1.11; in assay [1] (0.04 µM), 1.03. In addition, the relative viability in assay [1] (0.1265 µM) turned out to be 0.97; in assay [1] (0.4 µM), 0.914; in assay [1] (1.265 µM), 1.08; with Motesanib + Alpelisib (first compound 0.01 µM), 0.91; with Motesanib + Alpelisib (first compound 0.03162 µM), 0.663; with Motesanib + Alpelisib (first compound 0.1 µM) it was 0.922. Also, the relative viability in the assay with Motesanib + Alpelisib (first compound 0.3162 µM) turned out to be 1.3; with Motesanib + Alpelisib (first compound 1 µM), 1.15; in assay [2] (first compound 0.04 µM), 0.294; in assay [2] (first compound 0.1265 µM), 0.297; in assay [2] (first compound 0.4 µM), 0.315; in assay [2] (first compound 1.265 µM) it was 0.341.
In the case of LC-2-ad, the relative viability with Motesanib (0.01 µM) was found to be 0.992; in the assay with Motesanib (0.03162 µM), 0.974; with Motesanib (0.1 µM), 1.01; with Motesanib (0.3162 µM) it was 1.07; with Motesanib (1 µM) it was 0.981; in assay [1] (0.04 µM), 0.89. Moreover, the relative viability in assay [1] (0.1265 µM) was 0.845; in assay [1] (0.4 µM), 0.752; in assay [1] (1.265 µM), 0.625; with Motesanib + Alpelisib (first compound 0.01 µM), 0.801; in the assay with Motesanib + Alpelisib (first compound 0.03162 µM), 0.919; with Motesanib + Alpelisib (first compound 0.1 µM), 0.923. The relative viability came to 1.03 with Motesanib + Alpelisib (first compound 0.3162 µM); 0.813 with Motesanib + Alpelisib (first compound 1 µM); 0.28 in assay [2] (first compound 0.04 µM); 0.242 in assay [2] (first compound 0.1265 µM); 0.263 in assay [2] (first compound 0.4 µM); 0.211 in assay [2] (first compound 1.265 µM).
LCLC-97TM1: the relative viability with Motesanib (0.01 µM) was 0.895; with Motesanib (0.03162 µM), 0.961; with Motesanib (0.1 µM), 0.95; with Motesanib (0.3162 µM) it was 1.03; with Motesanib (1 µM) it was 0.999; in assay [1] (0.04 µM), 0.824. The relative viability in assay [1] (0.1265 µM) came out at 0.356; in assay [1] (0.4 µM) it was 0.225; in assay [1] (1.265 µM), 0.143; with Motesanib + Alpelisib (first compound 0.01 µM), 0.238; with Motesanib + Alpelisib (first compound 0.03162 µM), 0.241; in the assay with Motesanib + Alpelisib (first compound 0.1 µM), 0.283. In addition, the relative viability with Motesanib + Alpelisib (first compound 0.3162 µM) is 0.296; in the assay with Motesanib + Alpelisib (first compound 1 µM) it was 0.263; in assay [2] (first compound 0.04 µM), 0.137; in assay [2] (first compound 0.1265 µM), 0.155; in assay [2] (first compound 0.4 µM), 0.149; in assay [2] (first compound 1.265 µM), 0.143.
LCLC-103H: the relative viability amounted to 0.914 with Motesanib (0.01 µM); 0.958 with Motesanib (0.03162 µM); 0.974 with Motesanib (0.1 µM); 1.02 with Motesanib (0.3162 µM); 1.06 with Motesanib (1 µM); 0.896 in assay [1] (0.04 µM). The relative viability in assay [1] (0.1265 µM) was determined as 0.922; in assay [1] (0.4 µM), 0.799; in assay [1] (1.265 µM), 0.885; with Motesanib + Alpelisib (first compound 0.03162 µM), 0.947; with Motesanib + Alpelisib (first compound 0.1 µM), 1.06; with Motesanib + Alpelisib (first compound 0.3162 µM), 0.931. Besides, the relative viability with Motesanib + Alpelisib (first compound 1 µM) is 0.987; in assay [2] (first compound 0.04 µM), 0.49; in assay [2] (first compound 0.1265 µM), 0.509; in assay [2] (first compound 0.4 µM), 0.44; in assay [2] (first compound 1.265 µM) it was 0.41.
On to LK-2, for which the relative viability turned out to be 1.05 with Motesanib (0.01 µM); 0.945 with Motesanib (0.03162 µM); 0.914 in the assay with Motesanib (0.1 µM); 1.05 with Motesanib (0.3162 µM); 1.02 with Motesanib (1 µM); 0.623 in assay [1] (0.04 µM). Moreover, the relative viability worked out at 1.06 in assay [1] (0.1265 µM); 0.508 in assay [1] (0.4 µM); 0.636 in assay [1] (1.265 µM); 1.06 in the assay with Motesanib + Alpelisib (first compound 0.01 µM); 0.962 with Motesanib + Alpelisib (first compound 0.03162 µM); 1.44 in the assay with Motesanib + Alpelisib (first compound 0.1 µM). Also, the relative viability was determined as 1.05 with Motesanib + Alpelisib (first compound 0.3162 µM); 1.19 in the assay with Motesanib + Alpelisib (first compound 1 µM); 0.175 in assay [2] (first compound 0.04 µM); 0.195 in assay [2] (first compound 0.1265 µM); 0.156 in assay [2] (first compound 1.265 µM).
